From the kinase profiling compilation of Christmann-Franck et al. (2016)

What was measured:
Test in all cases: radiometric filter-binding kinase assay, Kinaseprofiler
MAPKAPK3 (human) = MAPKAPK3 (human) (UniProt Q16644); conditions: compound 1.0 µM; ATP 90 µM
SYK (human) = SYK (human) (UniProt P43405); conditions: compound 1.0 µM; ATP 15 µM
CSNK1D (human) = CSNK1D (human) (UniProt P48730); conditions: compound 1.0 µM; ATP 70 µM
STK4 (human) = STK4 (human) (UniProt Q13043); conditions: compound 1.0 µM; ATP 90 µM
Sequence of STK4 (human) (Q13043 whole entry, looked up): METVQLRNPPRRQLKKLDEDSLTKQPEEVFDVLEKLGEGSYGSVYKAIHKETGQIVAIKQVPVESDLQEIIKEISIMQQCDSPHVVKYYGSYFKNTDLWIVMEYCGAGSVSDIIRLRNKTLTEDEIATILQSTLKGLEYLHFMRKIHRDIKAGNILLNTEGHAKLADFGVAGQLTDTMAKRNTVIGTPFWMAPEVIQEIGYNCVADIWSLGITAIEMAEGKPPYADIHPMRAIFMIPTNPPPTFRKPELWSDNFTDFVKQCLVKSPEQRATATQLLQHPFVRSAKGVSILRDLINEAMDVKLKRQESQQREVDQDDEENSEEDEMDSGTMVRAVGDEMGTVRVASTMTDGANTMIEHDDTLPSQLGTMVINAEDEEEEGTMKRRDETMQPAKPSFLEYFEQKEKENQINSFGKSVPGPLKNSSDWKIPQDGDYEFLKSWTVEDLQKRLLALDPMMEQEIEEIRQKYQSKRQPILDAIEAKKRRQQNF

MELK (human) = MELK (human) (UniProt Q14680); conditions: compound 1.0 µM; ATP 45 µM
EPHA1 (human) = EPHA1 (human) (UniProt P21709); conditions: compound 1.0 µM; ATP 45 µM
DAPK2 (human) = DAPK2 (human) (UniProt Q9UIK4); conditions: compound 1.0 µM; ATP 10 µM
IKBKB (human) = IKBKB (human) (UniProt O14920); conditions: compound 1.0 µM; ATP 10 µM
CDC42BPA (human) = CDC42BPA (human) (UniProt Q5VT25); conditions: compound 1.0 µM; ATP 45 µM
Sequence of CDC42BPA (human) (Q5VT25 whole entry, looked up): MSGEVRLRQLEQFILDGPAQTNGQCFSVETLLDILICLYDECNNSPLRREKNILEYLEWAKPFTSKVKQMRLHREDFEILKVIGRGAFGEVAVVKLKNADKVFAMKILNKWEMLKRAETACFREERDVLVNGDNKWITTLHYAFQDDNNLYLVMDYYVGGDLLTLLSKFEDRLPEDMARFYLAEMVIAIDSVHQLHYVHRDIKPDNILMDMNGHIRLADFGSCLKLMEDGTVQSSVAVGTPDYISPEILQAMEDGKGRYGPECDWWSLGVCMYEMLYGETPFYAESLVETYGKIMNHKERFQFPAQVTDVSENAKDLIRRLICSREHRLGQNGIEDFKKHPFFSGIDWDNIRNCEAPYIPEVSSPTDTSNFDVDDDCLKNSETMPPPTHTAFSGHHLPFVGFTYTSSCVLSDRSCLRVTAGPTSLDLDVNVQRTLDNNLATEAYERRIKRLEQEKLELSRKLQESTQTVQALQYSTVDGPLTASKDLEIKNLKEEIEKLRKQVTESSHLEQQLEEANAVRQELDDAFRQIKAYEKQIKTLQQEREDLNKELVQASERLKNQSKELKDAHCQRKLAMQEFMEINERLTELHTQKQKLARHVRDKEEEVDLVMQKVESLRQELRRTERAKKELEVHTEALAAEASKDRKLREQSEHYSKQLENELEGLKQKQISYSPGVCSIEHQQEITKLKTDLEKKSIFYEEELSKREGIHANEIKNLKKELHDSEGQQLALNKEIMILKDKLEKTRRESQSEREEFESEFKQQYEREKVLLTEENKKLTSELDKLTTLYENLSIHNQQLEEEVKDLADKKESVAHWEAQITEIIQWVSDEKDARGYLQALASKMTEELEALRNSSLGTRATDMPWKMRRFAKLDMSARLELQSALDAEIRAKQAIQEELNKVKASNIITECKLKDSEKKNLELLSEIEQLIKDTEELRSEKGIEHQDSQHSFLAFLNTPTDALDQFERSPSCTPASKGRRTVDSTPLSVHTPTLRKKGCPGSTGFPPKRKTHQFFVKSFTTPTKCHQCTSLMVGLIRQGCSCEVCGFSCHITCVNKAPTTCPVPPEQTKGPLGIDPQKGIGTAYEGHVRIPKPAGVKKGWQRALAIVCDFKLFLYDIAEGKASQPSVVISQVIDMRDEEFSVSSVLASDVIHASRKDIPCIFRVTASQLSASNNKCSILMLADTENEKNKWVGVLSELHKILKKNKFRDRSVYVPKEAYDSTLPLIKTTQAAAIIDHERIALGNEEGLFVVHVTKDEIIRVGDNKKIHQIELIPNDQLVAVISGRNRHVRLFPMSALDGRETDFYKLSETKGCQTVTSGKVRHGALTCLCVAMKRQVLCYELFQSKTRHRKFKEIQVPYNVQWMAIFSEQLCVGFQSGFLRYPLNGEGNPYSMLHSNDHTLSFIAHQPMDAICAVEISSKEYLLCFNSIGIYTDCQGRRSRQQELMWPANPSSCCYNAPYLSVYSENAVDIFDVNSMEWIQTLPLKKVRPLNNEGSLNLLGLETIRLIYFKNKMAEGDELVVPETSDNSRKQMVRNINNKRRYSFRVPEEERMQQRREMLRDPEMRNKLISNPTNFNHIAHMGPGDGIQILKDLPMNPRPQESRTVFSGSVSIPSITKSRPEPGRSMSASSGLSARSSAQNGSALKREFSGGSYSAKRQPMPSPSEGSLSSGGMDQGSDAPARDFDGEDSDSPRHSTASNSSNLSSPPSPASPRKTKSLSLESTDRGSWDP

PDGFRA (human) = PDGFRA (human) (UniProt P16234); conditions: compound 1.0 µM; ATP 120 µM
[1] = tested on: IRAK4 (human), Q9NWZ3 [A81V]; conditions: compound 1.0 µM; ATP 200 µM
PRKX (human) = PRKX (human) (UniProt P51817); conditions: compound 1.0 µM; ATP 200 µM
[2] = tested on: RAF1 (human), P04049 [Y340D/Y341D]; conditions: compound 1.0 µM; ATP 45 µM
PAK6 (human) = PAK6 (human) (UniProt Q9NQU5); conditions: compound 1.0 µM; ATP 10 µM
[3] = tested on: FLT4 (human), P35916 [V1128L/H1146R]; conditions: compound 1.0 µM; ATP 200 µM
MAPK11 (human) = MAPK11 (human) (UniProt Q15759); conditions: compound 1.0 µM; ATP 45 µM
CSK (human) = CSK (human) (UniProt P41240); conditions: compound 1.0 µM; ATP 15 µM
NEK2 (human) = NEK2 (human) (UniProt P51955); conditions: compound 1.0 µM; ATP 120 µM
[4] = tested on: MAPKAPK2 (human), P49137 [A399G]; conditions: compound 1.0 µM; ATP 90 µM
[5] = tested on: BLK (human), P51451 [M278V]; conditions: compound 1.0 µM; ATP 45 µM
Sequence of BLK (human), P51451 [M278V] (P51451 whole entry, looked up, stated change not applied): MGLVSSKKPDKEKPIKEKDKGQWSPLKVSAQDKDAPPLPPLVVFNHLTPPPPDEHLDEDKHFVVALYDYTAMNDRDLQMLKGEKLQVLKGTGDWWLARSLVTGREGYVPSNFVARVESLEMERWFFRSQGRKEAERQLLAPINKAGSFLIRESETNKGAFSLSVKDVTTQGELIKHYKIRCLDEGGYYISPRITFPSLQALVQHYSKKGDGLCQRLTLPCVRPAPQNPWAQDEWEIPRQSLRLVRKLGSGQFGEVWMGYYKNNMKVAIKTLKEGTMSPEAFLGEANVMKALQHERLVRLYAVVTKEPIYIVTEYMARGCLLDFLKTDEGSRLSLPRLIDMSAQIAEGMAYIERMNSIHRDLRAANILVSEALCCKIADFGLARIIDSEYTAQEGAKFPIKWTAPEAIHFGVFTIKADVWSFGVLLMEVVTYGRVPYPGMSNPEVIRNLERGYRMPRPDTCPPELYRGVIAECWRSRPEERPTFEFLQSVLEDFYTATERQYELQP

SRPK2 (human) = SRPK2 (human) (UniProt P78362); conditions: compound 1.0 µM; ATP 10 µM
Sequence of SRPK2 (human) (P78362 whole entry, looked up): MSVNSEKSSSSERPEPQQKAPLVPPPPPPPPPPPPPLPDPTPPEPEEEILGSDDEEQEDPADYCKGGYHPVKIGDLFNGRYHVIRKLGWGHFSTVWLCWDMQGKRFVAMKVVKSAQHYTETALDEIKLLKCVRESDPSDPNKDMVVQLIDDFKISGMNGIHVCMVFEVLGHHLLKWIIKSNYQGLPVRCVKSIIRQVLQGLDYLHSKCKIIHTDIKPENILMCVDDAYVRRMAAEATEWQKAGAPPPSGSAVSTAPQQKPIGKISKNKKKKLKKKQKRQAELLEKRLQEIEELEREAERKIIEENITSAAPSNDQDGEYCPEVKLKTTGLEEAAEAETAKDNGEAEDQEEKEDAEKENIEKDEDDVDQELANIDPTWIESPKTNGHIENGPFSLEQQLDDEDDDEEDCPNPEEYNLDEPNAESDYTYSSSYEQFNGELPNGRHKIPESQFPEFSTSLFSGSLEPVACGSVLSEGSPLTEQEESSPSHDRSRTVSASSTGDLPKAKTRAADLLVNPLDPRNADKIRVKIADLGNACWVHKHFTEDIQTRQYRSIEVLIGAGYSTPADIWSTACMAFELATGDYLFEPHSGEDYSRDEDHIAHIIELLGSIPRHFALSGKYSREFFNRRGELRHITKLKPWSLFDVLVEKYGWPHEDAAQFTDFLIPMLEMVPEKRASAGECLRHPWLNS

ACVR1B (human) = ACVR1B (human) (UniProt P36896); conditions: compound 1.0 µM; ATP 10 µM
Sequence of ACVR1B (human) (P36896 whole entry, looked up): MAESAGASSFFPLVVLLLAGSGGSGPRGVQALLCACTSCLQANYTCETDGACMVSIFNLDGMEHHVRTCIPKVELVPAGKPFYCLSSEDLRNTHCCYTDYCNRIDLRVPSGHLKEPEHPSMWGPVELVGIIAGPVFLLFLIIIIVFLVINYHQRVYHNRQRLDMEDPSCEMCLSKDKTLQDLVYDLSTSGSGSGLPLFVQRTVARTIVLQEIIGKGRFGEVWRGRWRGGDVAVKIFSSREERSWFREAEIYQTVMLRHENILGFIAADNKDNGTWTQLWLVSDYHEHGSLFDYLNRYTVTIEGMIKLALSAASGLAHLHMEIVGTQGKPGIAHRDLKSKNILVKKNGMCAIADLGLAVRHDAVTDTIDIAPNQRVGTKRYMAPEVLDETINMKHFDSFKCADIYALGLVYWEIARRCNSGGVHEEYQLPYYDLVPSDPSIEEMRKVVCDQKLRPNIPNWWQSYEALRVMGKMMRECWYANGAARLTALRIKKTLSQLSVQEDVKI

[6] = target: JAK3 JH1 catalytic (human) (UniProt P52333); conditions: compound 1.0 µM; ATP 10 µM
INSR (human) = INSR (human) (UniProt P06213); conditions: compound 1.0 µM; ATP 200 µM
PDPK1 (human) = PDPK1 (human) (UniProt O15530); conditions: compound 1.0 µM; ATP 10 µM
CDK5 CDK5R1 p35 (human) = CDK5 CDK5R1 p35 (human) (UniProt Q00535+Q15078); conditions: compound 1.0 µM; ATP 15 µM
MAP2K7 (human) = MAP2K7 (human) (UniProt O14733); conditions: compound 1.0 µM; ATP 10 µM
Sequence of MAP2K7 (human) (O14733 whole entry, looked up): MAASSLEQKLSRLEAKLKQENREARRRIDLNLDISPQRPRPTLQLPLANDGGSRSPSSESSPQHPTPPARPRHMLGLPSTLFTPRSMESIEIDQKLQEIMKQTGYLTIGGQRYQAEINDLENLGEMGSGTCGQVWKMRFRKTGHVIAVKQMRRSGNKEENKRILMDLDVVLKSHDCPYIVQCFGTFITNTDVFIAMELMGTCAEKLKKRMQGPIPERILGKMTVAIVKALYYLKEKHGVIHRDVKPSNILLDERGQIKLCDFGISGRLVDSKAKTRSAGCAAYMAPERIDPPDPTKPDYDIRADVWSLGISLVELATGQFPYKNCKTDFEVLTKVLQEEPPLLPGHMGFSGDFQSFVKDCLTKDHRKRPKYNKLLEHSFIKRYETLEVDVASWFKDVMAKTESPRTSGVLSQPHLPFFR

PDGFRB (human) = PDGFRB (human) (UniProt P09619); conditions: compound 1.0 µM; ATP 200 µM
MAP3K5 (human) = MAP3K5 (human) (UniProt Q99683); conditions: compound 1.0 µM; ATP 200 µM
FER (human) = FER (human) (UniProt P16591); conditions: compound 1.0 µM; ATP 70 µM
[7] = tested on: EPHB2 (human), P29323 [A848S/K918E]; conditions: compound 1.0 µM; ATP 10 µM
FYN (human) = FYN (human) (UniProt P06241); conditions: compound 1.0 µM; ATP 70 µM
MYLK (human) = MYLK (human) (UniProt Q15746); conditions: compound 1.0 µM; ATP 70 µM
PASK (human) = PASK (human) (UniProt Q96RG2); conditions: compound 1.0 µM; ATP 15 µM
MAP3K9 (human) = MAP3K9 (human) (UniProt P80192); conditions: compound 1.0 µM; ATP 45 µM
TYRO3 (human) = TYRO3 (human) (UniProt Q06418); conditions: compound 1.0 µM; ATP 45 µM
[8] = tested on: SGK1 (human), O00141 [S422D]; conditions: compound 1.0 µM; ATP 90 µM
HCK (human) = HCK (human) (UniProt P08631); conditions: compound 1.0 µM; ATP 70 µM
[9] = tested on: RPS6KB1 (human), P23443 [T412E]; conditions: compound 1.0 µM; ATP 15 µM

Sequence of CSNK1D (human) (P48730 whole entry, looked up): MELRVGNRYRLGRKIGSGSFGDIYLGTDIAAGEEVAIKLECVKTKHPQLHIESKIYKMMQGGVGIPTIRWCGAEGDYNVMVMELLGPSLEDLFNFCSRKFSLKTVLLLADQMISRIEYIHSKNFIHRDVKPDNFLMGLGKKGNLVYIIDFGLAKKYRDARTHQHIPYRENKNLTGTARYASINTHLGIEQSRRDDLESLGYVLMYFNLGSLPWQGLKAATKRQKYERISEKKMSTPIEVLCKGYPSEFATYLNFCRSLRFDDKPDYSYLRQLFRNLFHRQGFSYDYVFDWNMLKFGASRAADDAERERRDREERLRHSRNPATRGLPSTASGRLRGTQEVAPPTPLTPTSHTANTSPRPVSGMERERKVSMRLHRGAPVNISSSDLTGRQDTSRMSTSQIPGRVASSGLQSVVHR

Molecule `CN(C)S(=O)(=O)Nc1ccc2ccc3ncc(-c4cnn(C)c4)cc3c(=O)c2c1` has a residual activity (MAPKAPK3 (human)) of 102%, a residual activity (SYK (human)) of 94% and a residual activity (CSNK1D (human)) of 98%. The residual activity (STK4 (human)) was 80%, the residual activity (MELK (human)) was 38% and the residual activity (EPHA1 (human)) was 65%. For the same molecule, the residual activity (DAPK2 (human)) was 91%, the residual activity (IKBKB (human)) was 98% and the residual activity (CDC42BPA (human)) was 107%. For the same molecule, the residual activity (PDGFRA (human)) was 59%, the residual activity [1] was 14% and the residual activity (PRKX (human)) was -12%. The residual activity [2] was 72%, the residual activity (PAK6 (human)) was 109% and the residual activity [3] was 10%. For the same molecule, the residual activity (MAPK11 (human)) was 113%, the residual activity (CSK (human)) was 85% and the residual activity (NEK2 (human)) was 65%. The residual activity [4] was 104%, the residual activity [5] was 83% and the residual activity (SRPK2 (human)) was 104%. It also gave a residual activity (ACVR1B (human)) of 100%, a residual activity [6] of 81% and a residual activity (INSR (human)) of 109%. It also gave a residual activity (PDPK1 (human)) of 105%, a residual activity (CDK5 CDK5R1 p35 (human)) of 93% and a residual activity (MAP2K7 (human)) of 69%. It also gave a residual activity (PDGFRB (human)) of 77%, a residual activity (MAP3K5 (human)) of 98% and a residual activity (FER (human)) of 56%. The residual activity [7] was 103%, the residual activity (FYN (human)) was 64% and the residual activity (MYLK (human)) was 61%. It also gave a residual activity (PASK (human)) of 91%, a residual activity (MAP3K9 (human)) of 61% and a residual activity (TYRO3 (human)) of 97%. The residual activity [8] was 96%, the residual activity (HCK (human)) was 33% and the residual activity [9] was 81%.
